The nature of data set [1]: Plasma CBD concentration after dosing (FIG. 5). The class given is in vivo.
For data set [2] the following is noted: humans, taken orally; cited from earlier work.
Data set [3] is described as follows: CoQ10 absorption in plasma after single dose, clinical study. The data set is classed as in vivo, human. As for the experimental part:
The purpose of the study was to investigate compare the CoQ10 level of absorption in the plasma of a phospholipid krill oil+CoQ10 product to a comparator CoQ10-product (without any krill oil).
Absorption levels of CoQ10 in plasma were measured at time (T)=0, 2, 4, 6 and 8 hours after the single-dose (2 soft gels) intake of the study products. A 7-day minimum washout period between the two doses was specified.
A total of 13 subjects successfully completed the study.

For data set [4] the following is noted: cited from earlier work.
The conditions of data set [5]: cited from earlier work. The source holds these as a separate data set.

Converted amounts (≈) assume the structure as drawn.

Regarding `C=C(C)[C@@H]1CCC(C)=C[C@H]1c1c(O)cc(CCCCC)cc1O` [CBD, Cannabidiol], the “increase of bioavailability of CBD” value in data set [1] (krill oil compared to MCT, FIG. 5) is given as 3 fold. Moreover, the “absorption of CBD (plasma CBD concentration)” value in data set [1] (krill oil vs medium chain triglyceride (MCT) oil) is listed as “much greater extent”. The bioavailability entry in data set [2] is given as “around 6%”.

In the case of `COC1=C(OC)C(=O)C(C/C=C(\C)CC/C=C(\C)CC/C=C(\C)CC/C=C(\C)CC/C=C(\C)CC/C=C(\C)CC/C=C(\C)CC/C=C(\C)CC/C=C(\C)CCC=C(C)C)=C(C)C1=O` [CoQ10, Coenzyme Q10], the “absorption of CoQ10 in plasma, change from baseline (in words)” value in data set [3] (0-8 hours after single dose, 13 subjects) is listed as “No significant absorption”. For the same molecule, the “Change of plasma CoQ10 from baseline” value is recorded as −11.49% in data set [3] (2 hours), −4.53% in data set [3] (4 hours), 1.71% in data set [3] (6 hours) and 6.15% in data set [3] (8 hours). Also, the concentration at 2 h in data set [3] (human, plasma, oral, 2 soft gels, 2 hours after single dose) worked out at 8780 ng/mL. The molecule further showed a concentration at 4 h in data set [3] (human, plasma, oral, 2 soft gels, 4 hours after single dose) of 9570 ng/mL. This molecule gave a concentration at 6 h in data set [3] (human, plasma, oral, 2 soft gels, 6 hours after single dose) of 10100 ng/mL. This molecule came in with a concentration at 8 h in data set [3] (human, plasma, oral, 2 soft gels, 8 hours after single dose) of 10500 ng/mL. Further, the concentration at 0 h in data set [3] (human, plasma, oral, 2 soft gels, Baseline) is 9920 ng/mL.

As for `O=c1c(O)c(-c2ccc(O)c(O)c2)oc2cc(O)ccc12` [Fisetin], the log partition coefficient (logP) in data set [4] was 1.81-2.03. In data set [5], the solubility was less than 1000 µg/mL and the Solubility ethanol is 5000 µg/mL (≈ 17.5 mM). Besides, the Solubility water in data set [5] (water) is 150 µg/mL (≈ 0.524 mM).

Regarding `O=c1c(O)c(-c2ccc(O)c(O)c2)oc2cc(O)cc(O)c12` [Quercetin], the logP in data set [4] was 1.50. In addition, in data set [5], the Solubility ethanol was 2000 µg/mL (≈ 6.62 mM).

The logP is the decadic logarithm of the partition coefficient of the neutral form, usually between octanol and water. One may read the solubility as how much of the substance goes into solution per volume.

The values are drawn from patent US12605411B2, “Phospholipid compositions for delivery of therapeutic compounds” (Aker BioMarine Human Ingredients AS, priority 2022, dated 2026).
